From US8329686B2, “Isatin analogues and uses therefor” (Washington University, priority 2006, dated 2012)
Read-outs that look alike come from different tables or passages of the source.

Key:
Assay type in all cases: biochemical
[1] = target: T1, caspase 1 (Homo sapiens, UniProt P29466); assay: Enzyme inhibition assay, caspase 1 (fluorogenic Ac-YVAD-AMC)
T1 construct: purchased BIOMOL Research Laboratories (Plymouth Meeting, Pa.)
T1 sequence (P29466 120-297 limits assumed): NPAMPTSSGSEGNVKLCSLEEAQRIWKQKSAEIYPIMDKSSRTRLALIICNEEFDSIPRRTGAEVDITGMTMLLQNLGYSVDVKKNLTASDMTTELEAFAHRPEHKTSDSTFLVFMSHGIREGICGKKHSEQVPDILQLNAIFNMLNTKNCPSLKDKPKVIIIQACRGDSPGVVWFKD
T1 sequence (P29466 317-404 limits assumed): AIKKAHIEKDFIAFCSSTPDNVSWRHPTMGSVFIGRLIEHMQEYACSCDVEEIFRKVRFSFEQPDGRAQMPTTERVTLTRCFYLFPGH

[2] = target: T2, caspase-3 (Homo sapiens, UniProt P42574); assay: Enzyme inhibition assay, caspase 3 (fluorogenic Ac-DEVD-AMC)
T2 construct: purchased Sigma-Aldrich (St. Louis, Mo.)
T2 sequence (P42574 29-175 limits assumed): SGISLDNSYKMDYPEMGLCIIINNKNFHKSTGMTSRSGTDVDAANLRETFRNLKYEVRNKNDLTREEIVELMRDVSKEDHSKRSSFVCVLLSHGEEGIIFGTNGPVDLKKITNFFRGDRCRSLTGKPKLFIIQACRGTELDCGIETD
T2 sequence (P42574 176-277 limits assumed): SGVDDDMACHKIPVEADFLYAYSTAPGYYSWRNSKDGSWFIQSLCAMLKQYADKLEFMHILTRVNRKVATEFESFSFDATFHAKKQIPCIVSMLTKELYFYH
Experimental: (§1) Enzyme Assays. Inhibition of recombinant human caspase-3 and other caspases by the isatin analogues was assessed using a fluorometric assay by measuring the accumulation of a fluorogenic product, 7-amino-4-methylcoumarin (7-AMC).
(§2) Enzyme Inhibition Assays. Recombinant human caspases (3, 6, 7, and 8) and their peptide-specific substrates (Ac-DEVDAMC, Ac-VEID-AMC, Ac-DEVD-AMC, and Ac-IETD-AMC, respectively) were purchased from Sigma-Aldrich (St. Louis, Mo.) with the exception of caspase 1 and its substrate (Ac-YVAD-AMC), which were obtained from BIOMOL Research Laboratories (Plymouth Meeting, Pa.). The enzymatic activity of caspases was determined by measuring the accumulation of the fluorogenic product 7-amino-4-methylcoumarin (AMC). All assays were prepared in 96-well format at a volume of 210 μL per well and consisted of 100 mM Na+ HEPES (pH 7.4), 10% sucrose, 100 mM NaCl, 0.1% CHAPS, 5 mM 2-mercaptoethanol, 2 mM EDTA, 10 μM Ac-YVAD-AMC (caspase 1); 20 mMNa^+ HEPES (pH 7.4), 10% sucrose, 100 mMNaCl, 0.1% CHAPS, 2 mM EDTA, 10 μM Ac-DEVD-AMC (caspase 3); 20 mM Na^+ HEPES (pH 7.4), 10% sucrose, 100 mM NaCl, 0.1% CHAPS, 2 mM EDTA, 10 μM Ac-VEID-AMC (caspase 6); 20 mM Na+ HEPES (pH 7.4), 100 mM NaCl, 10% sucrose, 0.1% CHAPS, 5 mM 2-mercaptoethanol, 2 mM EDTA, 10 μM Ac-DEVD-AMC (caspase 7); 20 mM Na+ HEPES (pH 7.4), 10% sucrose, 100 mM NaCl, 0.1% CHAPS, 2 mM EDTA, 10 μM Ac-IETD-AMC (caspase 8).
(§3) Recombinant caspases were first assayed to determine the optimal concentration for each experiment. Optimal concentrations were based in the linear range of the enzyme activation curves. Peptide inhibitors with known IC50 values were tested together with the compounds as a control for each caspase assay. […] Peptide and nonpeptide inhibitors were dissolved in DMSO, and a 2 serial dilution was performed prior to screening in order to obtain desired concentrations. 10 μL was added to each well containing 100 μL caspase solution and allowed to incubate on ice for 30 min. […] The final concentration of DMSO in all wells was 5% of the total volume. In caspase-1 and caspase-7 assays, 10 mM 2-mercaptoethanol was added to the substrate solution for full activation of the enzymes.
(§4) Compounds were tested in duplicate, and IC50 curves were calculated for all inhibitors assayed. Final IC50s were the average of three independent experiments.

[3] = target: T3, caspase 6 (Homo sapiens, UniProt P55212); assay: Enzyme inhibition assay, caspase 6 (fluorogenic Ac-VEID-AMC)
T3 construct: purchased Sigma-Aldrich (St. Louis, Mo.)
T3 sequence (P55212 24-179 limits assumed): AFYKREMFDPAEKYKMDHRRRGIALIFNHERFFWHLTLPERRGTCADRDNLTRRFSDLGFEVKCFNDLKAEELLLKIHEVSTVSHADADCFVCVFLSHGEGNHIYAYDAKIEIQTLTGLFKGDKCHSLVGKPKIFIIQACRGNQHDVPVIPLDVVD
T3 sequence (P55212 194-293 limits assumed): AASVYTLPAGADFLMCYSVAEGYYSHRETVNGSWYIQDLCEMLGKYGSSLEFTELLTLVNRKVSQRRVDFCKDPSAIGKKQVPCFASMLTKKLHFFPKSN

[4] = target: T4, caspase 8 (Homo sapiens, UniProt Q14790); assay: Enzyme inhibition assay, caspase 8 (fluorogenic Ac-IETD-AMC)
T4 construct: purchased Sigma-Aldrich (St. Louis, Mo.)
T4 sequence (Q14790 217-374 limits assumed): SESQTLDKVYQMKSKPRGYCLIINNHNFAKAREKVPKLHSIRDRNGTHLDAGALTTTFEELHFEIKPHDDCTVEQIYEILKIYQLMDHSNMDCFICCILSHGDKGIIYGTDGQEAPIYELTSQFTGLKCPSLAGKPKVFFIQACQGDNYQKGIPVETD
T4 sequence (Q14790 385-479 limits assumed): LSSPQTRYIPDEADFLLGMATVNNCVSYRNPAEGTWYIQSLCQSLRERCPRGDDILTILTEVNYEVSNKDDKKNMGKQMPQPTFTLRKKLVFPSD
Experimental: as §1, §2, §3, §4

[5] = target: T5, caspase 7 (Homo sapiens, UniProt P55210); assay: Enzyme inhibition assay, caspase 7 (fluorogenic Ac-DEVD-AMC)
T5 construct: purchased Sigma-Aldrich (St. Louis, Mo.)
T5 sequence (P55210 24-198 limits assumed): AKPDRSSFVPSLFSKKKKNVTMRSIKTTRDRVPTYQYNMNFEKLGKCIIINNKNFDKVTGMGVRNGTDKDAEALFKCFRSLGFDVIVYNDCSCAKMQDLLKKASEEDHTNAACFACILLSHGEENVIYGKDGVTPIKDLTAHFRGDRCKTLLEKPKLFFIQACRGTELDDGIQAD
T5 sequence (P55210 207-303 limits assumed): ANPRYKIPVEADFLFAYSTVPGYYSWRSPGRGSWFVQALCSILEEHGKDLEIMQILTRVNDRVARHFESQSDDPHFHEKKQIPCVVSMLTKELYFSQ
Experimental: as §1, §2, §3, §4

[6] = Table 6, read-out: IC50 (nM) caspase-1
[7] = Table 6, read-out: IC50 (nM) caspase-6
[8] = Table 6, read-out: IC50 (nM) caspase-7
[9] = Table 4, read-out: IC50 (nM) caspase-3
[10] = Table 4, read-out: IC50 (nM) caspase-7
[11] = Table 6, read-out: IC50 (nM) caspase-3
[12] = Table 1, read-out: IC50 (nM) Caspase 1

CN1C(=O)C(=O)c2cc(S(=O)(=O)N3CCCC3COc3cccnc3)ccc21 (stereo not shown) [Compound 21a, 1-Methyl-5-(2-(pyridin-3-yl-oxymethyl)-pyrrolidine-1-sulfonyl)-1H-indole-2,3-dione]
IC50 [1, 6]: > 10000 nM | IC50 ([2]; IC50 (nM) caspase-3, Table 6): 23.3 ± 3.1 nM | IC50 [3, 7]: > 5000 nM | IC50 [4]: > 50000 nM | IC50 [5, 8]: 94.9 ± 21.6 nM

O=C1Nc2ccc(S(=O)(=O)N3CCC[C@H]3COc3ccccc3)cc2C1=O [Compound 10, (S)-5-(2-Phenoxymethyl-pyrrolidine-1-sulfonyl)-1H-indole-2,3-dione]
IC50 [2, 9]: 240 ± 10 nM | IC50 [5, 10]: 540 ± 56.6 nM

O=C1Nc2ccc(S(=O)(=O)N3CCCC3COc3ccncc3)cc2C1=O (stereo not shown) [Compound 23, 5-(2-(Pyridin-4-yl-oxymethyl)-pyrrolidine-1-sulfonyl)-1H-indole-2,3-dione]
IC50 [1, 6]: > 5000 nM | IC50 [2, 11]: 20.4 ± 1.7 nM | IC50 [3, 7]: > 5000 nM | IC50 ([4]; Table 6, read-out: IC50 (nM) caspase-8): > 50000 nM | IC50 [5, 8]: 142 ± 22.6 nM

N#CC(C#N)=C1C(=O)N(Cc2ccc(O)cc2)c2ccc(S(=O)(=O)N3CCCC3COc3cccnc3)cc21 (stereo not shown) [Compound 30b, 2-{1-(4-Hydroxy-benzyl)-2-oxo-5-[2-(pyridine-3-yloxymethyl)-pyrrolidine-1-sulfonyl]-1,2-dihydro-indol-3-yl-idene}-malononitrile]
IC50 [1]: 2720 nM | IC50 ([1]; IC50 (nM) Casp-1, Table 7): 2720 ± 580 nM | IC50 ([1]; read-out: IC50 for caspase-1): 2700 to 3200 nM | IC50 ([2]; IC50 (nM) Casp-3, Table 7): 7.8 ± 1.9 nM | IC50 ([2]; IC50 (nM) Caspase 3, Table 2): 7.8 ± 1.9 nM | IC50 ([2]; IC50 for caspase-3): 7.8 nM | IC50 [3]: 650 ± 22 nM | IC50 ([3]; Table 2, read-out: IC50 (nM) Caspase 6): 850 ± 21 nM | IC50 ([3]; read-out: IC50 for caspase-6): 515 to 770 nM | IC50 ([4]; Table 2, read-out: IC50 (nM) Caspase 8): > 50000 nM | IC50 ([4]; Table 7, read-out: IC50 (nM) Casp-8): > 50000 nM | IC50 ([4]; read-out: IC50 for caspase-8): > 50000 nM | IC50 ([5]; IC50 (nM) Casp-7, Table 7): 28.3 ± 5.4 nM | IC50 ([5]; IC50 (nM) Caspase 7, Table 2): 28.3 ± 5.4 nM | IC50 ([5]; IC50 for caspase-7): 28.6 nM

O=C1Nc2ccc(S(=O)(=O)N3CCC[C@H]3COc3ccccc3)cc2C1=NO [WC(II)-51]
potency as caspase-3/7 inhibitors (in words) ([2]; caspase-3/7): low potency

O=C1Nc2ccc(S(=O)(=O)N3CCCC3COc3cccnc3)cc2C1=O (stereo not shown) [Compound 20, 5-(2-(Pyridin-3-yl-oxymethyl)-pyrrolidine-1-sulfonyl)-1H-indole-2,3-dione]
IC50 [1, 6]: > 5000 nM | IC50 [2, 11]: 58.3 ± 7.6 nM | IC50 [3, 7]: > 5000 nM | IC50 [4]: > 50000 nM | IC50 [5, 8]: 215 ± 49.5 nM

O=C1C(=O)N(Cc2ccc(F)nc2)c2ccc(S(=O)(=O)N3CCC[C@H]3COc3ccccc3)cc21 [Compound 11g, (S)-1-(6-Fluoropyridin-3-yl-methyl)-5-(2-phenoxymethylpyrrolidine-1-sulfonyl)-1H-indole-2,3-dione]
IC50 [2, 9]: 10.3 ± 1.5 nM | IC50 [5, 10]: 14.5 ± 0.9 nM

CC(=O)N[C@@H](Cc1ccc(O)cc1)C(=O)N[C@H](C(=O)N[C@@H](C)C(=O)N[C@H](C=O)CC(=O)O)C(C)C [Ac-YVAD-CHO, reference compound]
IC50 [1, 12]: 8.1 ± 2.1 nM | IC50 ([1]; Table 2, read-out: IC50 (nM) Caspase 1): 8.1 ± 2.1 nM

O=C1C(=O)N(Cc2ccc(OCCF)cc2)c2ccc(S(=O)(=O)N3CCCC3COc3ccccc3)cc21 (stereo not shown) [WC-II-89, 1-[4-(2-Fluoroethoxy)-benzyl]-5-(2-phenoxymethyl-pyrrolidine-1-sulfonyl)-1H-indole-2,3-dione]
IC50 [1, 12]: > 15000 nM | IC50 ([2]; Table 1, read-out: IC50 (nM) Caspase 3): 9.7 ± 1.3 nM | IC50 ([3]; Table 1, read-out: IC50 (nM) Caspase 6): 3720 nM | IC50 ([4]; Table 1, read-out: IC50 (nM) Caspase 8): > 50000 nM

CC(=O)N[C@@H](CC(=O)O)C(=O)N[C@@H](CCC(=O)O)C(=O)N[C@H](C(=O)N[C@H](C=O)CC(=O)O)C(C)C [Ac-DEVD-CHO, reference compound]
IC50 ([5]; Table 1, read-out: IC50 (nM) Caspase 7): 8.5 ± 1 nM | IC50 ([5]; Table 2, read-out: IC50 (nM) Caspase 7): 8 ± 1 nM
